Measurements: patent US20220151292A1, “NICOTINE POUCH COMPOSITION” (NCP NextGen A/S, priority 2020, published 2022)

How the values were obtained:
Assay type in all cases: physicochemical
[1] = Release experiment: nicotine released from NPR (16%) in water with 1 equivalent of AlCl3 (Example 6E); settings: 1 equivalent AlCl3, water, nicotine 28 mg/L, 25 degrees Celsius, 150 rpm, HPLC
Experimental: (§1) The release experiment was performed by adding NPR (16%) and 1 equivalent of AlCl3 to a volume of water corresponding to a nicotine concentration of 28 mg/L. The equivalents are relative to nicotine. The temperature of the water was 25 degrees Celsius throughout the experiment and stirring of 150 rpm was applied throughout the experiment. pH was measured at experiment start and end. The pH was in all experiments below 7.0 at both the start and end of the experiment.
(§2) A relative low nicotine concentration is used in order to reduce the impact of equilibrium on both the release rate and effective release of nicotine from the ion-exchange resin.
(§3) Samples were taken out at varying timepoints and analyzed for nicotine content using standard HPLC. The result is presented as percentage of nicotine released.

[2] = Release experiment: nicotine released from NPR (16%) in water with varying salts (CaCl2, NaCl) and equivalents (Example 6A); settings: NPR (16%) in 900 mL water, nicotine 28 mg/L, 25 degrees Celsius, 100 rpm, HPLC
[3] = Release experiment: nicotine released from NPR (16%) in water with varying equivalents of CaCl2 (Example 6B); settings: nicotine 28 mg/L, 25 degrees Celsius, 100 rpm, HPLC
Experimental: as §1, with “and varying” for “and 1”, “of CaCl2” for “of AlCl3”, “equivalents of CaCl2” for “equivalents”, “of 100” for “of 150”
as §2, §3

[4] = Release experiment: nicotine released from nicotine premixes of varying nicotine content with 1 equivalent of CaCl2 (Example 6D); settings: nicotine premix, 1 equivalent CaCl2, water, nicotine 28 mg/L, 25 degrees Celsius, 150 rpm, HPLC
Experimental: as §1, with “adding nicotine premix having varying content of nicotine” for “adding NPR (16%)”, “of CaCl2” for “of AlCl3”, “of water, whereby a” for “of water”, “corresponding” for “corresponding to a”, “28 mg/L is obtained.” for “28 mg/L.”, “The equivalent of CaCl2 is” for “The equivalents are”
as §2, §3

[5] = Release experiment: nicotine released from NPR (16%) in water with varying equivalents of MgCl2 (Example 6C); settings: nicotine 28 mg/L, 25 degrees Celsius, 100 rpm, HPLC
Experimental: as §1, with “varying equivalents” for “1 equivalent”, “MgCl2” for “AlCl3”, “equivalents of MgCl2” for “equivalents”, “100” for “150”
as §2, §3

**Q.** With [Cl][Al]([Cl])[Cl] [AlCl3] as the molecule, how does the “effect of AlCl3 on release of nicotine from NPR” value [1] read?
**A.** significantly increases the release of nicotine

**Q.** Which “effect of the salt on release of nicotine from NPR” value [2] does the source give for [Ca+2].[Cl-].[Cl-] [CaCl2] here?
**A.** significantly increases the release of nicotine

**Q.** And the “effect of CaCl2 on release of nicotine from NPR” value [3]?
**A.** significantly increases the release of nicotine

**Q.** What about the “effect of CaCl2 on release of nicotine from premixes” value [4] of the same molecule?
**A.** significantly increases the release of nicotine

**Q.** With [Cl-].[Cl-].[Mg+2] [MgCl2] as the molecule, how does the “effect of MgCl2 on release of nicotine from NPR” value [5] read?
**A.** significantly increases the release of nicotine

**Q.** With [Cl-].[Na+] [NaCl, reference compound] as the molecule, how does the “effect of the salt on release of nicotine from NPR” value [2] read?
**A.** much lower effect on the release of nicotine
